Data on 28 molecules can be found in patent US20230107538A1, “CYCLOALKYL-CONTAINING CARBOXYLIC ACIDS AND USES THEREOF” (LIMINAL BIOSCIENCES LIMITED, priority 2019, published 2023).

Common to all, as to assay type: cell-based
Assay [1] has as its target T1, human GPR120 (Homo sapiens, UniProt Q5NUL3).
T1 sequence (Q5NUL3 1-361): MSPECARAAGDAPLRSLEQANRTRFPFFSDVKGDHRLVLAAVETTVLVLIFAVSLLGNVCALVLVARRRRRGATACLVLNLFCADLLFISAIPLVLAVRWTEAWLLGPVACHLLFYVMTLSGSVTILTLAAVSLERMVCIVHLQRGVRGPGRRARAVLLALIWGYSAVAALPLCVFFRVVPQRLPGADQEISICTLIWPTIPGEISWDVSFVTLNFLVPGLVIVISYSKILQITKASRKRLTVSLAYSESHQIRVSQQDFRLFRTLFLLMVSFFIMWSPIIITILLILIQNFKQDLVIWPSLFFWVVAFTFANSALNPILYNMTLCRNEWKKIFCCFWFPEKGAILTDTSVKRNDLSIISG
In words: GPR120 β-arrestin 2 recruitment BRET, agonist mode. The following applies: HEK293 cells, read-out: GPR120 (agonist mode) EC50 β-arr2. From the text: (§1) Plasmids: The cDNA clones for human GPR40 and GPR84 receptors, human β-arrestin 2, Gαi2, Gβ1, and Gγ2 were obtained from the cDNA Resource Center (www.cdna.org). A plasmid encoding the human GPR120-L (long isoform) cDNA was obtained from R&D Systems. GPR120-S (short isoform) was generated by replacing the BglII-BsgI fragment from GPR120-L by a gBlock gene fragment (Integrated DNA Technologies, IA) lacking the DNA sequence corresponding to the extra 16 amino acids found in the third intracellular loop of the long form. GFP10 (F64L, S147P, S202F and H231L variant of Aequorea victoria GFP) gBlocks gene fragments (Integrated DNA Technologies) and linker were inserted in frame at the N-terminus of human Gγ2, or at the C-terminus of GPR40 and GPR120. Rluc8 (A55T, C124A, S130A, K136R, A143M, M185V, M253L, and S287L variant of the Renilla luciferase) gBlocks gene fragment (Integrated DNA Technologies) was inserted with linkers in between residues 91 and 92 of Gα2 or at the N-terminus of β-arrestin 2.
(§2) BRET measurements: a Gαi bioluminescence resonance energy transfer (BRET) biosensor was used to directly monitor GPR84-mediated activation of Gαi. The Gαi biosensor consists of a Rluc8-tagged Gαi2 subunit, a GFP10-tagged Gγ2 subunit, and an untagged Gβ1. Agonist stimulation and ensuing GPR84 activation triggers a physical separation between the RLuc8-Gαi donor and the GFP10-Gγ2 acceptor, resulting in a decrease in BRET signal whose amplitude is correlated to ligand efficacy. A BRET-based assay that allows the monitoring of Rluc8-tagged β-arrestin 2 recruitment to GFP10-tagged GPR40 or GFP10-tagged GPR120 was used to assess GPR40 or GPR120 activation. Transiently transfected HEK293 cells were seeded in 96-well white clear bottom Costar microplates (Fisher Scientific) coated with poly-D-lysine (Sigma-Aldrich) and left in culture for 24 hours. Cells were washed once with Tyrode's buffer (140 mmol/L NaCl, 1 mmol/L CaCl2, 2.7 mmol/L KCl, 0.49 mmol/L MgCl2, 0.37 mmol/L NaH2PO4, 5.6 mmol/L glucose, 12 mmol/L NaHCO3, and 25 mmol/L HEPES, pH 7.5) and the Rluc8 substrate coelenterazine 400A (Prolume, Lakeside, Ariz.) added at a final concentration of 5 μmol/L in Tyrode's buffer. Ligands were incubated with cells at room temperature for 5 minutes (G protein) or 25 minutes (β-arrestin) before reading BRET signal. In GPR84 antagonist mode, cells were treated with 125 μmol/L of the GPR84 agonist sodium decanoate in combination with test compounds. BRET readings were collected using an Infinite M1000 microplate reader (Tecan, Morrisville, N.C.). BRET^2 readings between Rluc8 and GFP10 were collected by sequential integration of the signals detected in the 370 to 450 nm (Rluc8) and 510 to 540 nm (GFP10) windows. The BRET signal was calculated as the ratio of light emitted by acceptor (GFP10) over the light emitted by donor (Rluc8). The values were corrected to net BRET by subtracting the background BRET signal obtained in cells transfected with Rluc8 constructs alone. Ligand-promoted net BRET values were calculated by subtracting vehicle-induced net BRET from ligand-induced net BRET.

Assay [2] has as its target T2, human GPR84 (Homo sapiens, UniProt Q9NQS5).
T2 construct: host or cells: HEK293 (transient)
The assay can be described thus: GPR84 Gαi BRET biosensor, antagonist mode (125 μmol/L sodium decanoate). The following applies: HEK293 cells, with 125 μmol/L sodium decanoate.
Text: as §1, §2
(Bioluminescence resonance energy transfer reports proximity on the nanometre scale.)

Assay [3] addresses T3, human GPR40 (Homo sapiens, UniProt O14842).
T3 construct: host or cells: HEK293 (transient)
The assay can be described thus: GPR40 β-arrestin 2 recruitment BRET, agonist mode. The following applies: HEK293 cells, read-out: GPR40 (agonist mode) EC50 β-arr2.
Text: as §1, §2
On the technique in general: Activated receptors often draw arrestin, which recruitment assays turn into a signal.

The target in assay [4] is T2, human GPR84. In words: GPR84 Gαi BRET biosensor, agonist activity. The following applies: HEK293 cells.
Text: as §1, §2

pEC50, pIC50: −log10 of the molar value.

T2 sequence (Q9NQS5 whole entry): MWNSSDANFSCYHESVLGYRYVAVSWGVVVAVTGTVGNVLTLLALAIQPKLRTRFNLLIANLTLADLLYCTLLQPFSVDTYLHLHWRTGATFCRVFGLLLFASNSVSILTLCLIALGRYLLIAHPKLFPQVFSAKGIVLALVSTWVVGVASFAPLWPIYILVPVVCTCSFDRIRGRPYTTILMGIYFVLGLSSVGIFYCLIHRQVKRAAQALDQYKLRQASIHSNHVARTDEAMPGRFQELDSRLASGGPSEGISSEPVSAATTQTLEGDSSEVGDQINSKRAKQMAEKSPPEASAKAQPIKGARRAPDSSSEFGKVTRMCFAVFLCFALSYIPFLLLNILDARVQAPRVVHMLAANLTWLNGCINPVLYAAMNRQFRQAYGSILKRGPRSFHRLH
T3 sequence (O14842 whole entry): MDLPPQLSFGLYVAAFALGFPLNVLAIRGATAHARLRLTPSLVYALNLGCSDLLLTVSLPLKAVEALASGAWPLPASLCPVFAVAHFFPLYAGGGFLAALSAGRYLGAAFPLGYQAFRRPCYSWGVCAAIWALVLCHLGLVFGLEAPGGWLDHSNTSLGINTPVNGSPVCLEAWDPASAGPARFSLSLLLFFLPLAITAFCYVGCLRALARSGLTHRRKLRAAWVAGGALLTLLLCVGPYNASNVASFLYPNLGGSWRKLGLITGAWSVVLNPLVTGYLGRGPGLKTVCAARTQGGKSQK

As for `CCCCCCCCC1(C(=O)O)CC1`, the negative logarithm of the EC50 (pEC50) (as a rule, −log10 of the EC50, conventionally taken in molar units) in assay [1] is 3.61; in assay [3], 3.79. For the same molecule, in assay [2], the pIC50 (in general, −log10 of the IC50, conventionally taken in molar units) was 3.94.

Take `CCCCCCC1CC1CC(=O)O` (stereo not shown): the pEC50 in assay [4] was more than 4.80; in assay [1], 3.57; in assay [3] it was 3.77.

With `CCCC[C@H]1CC[C@H](CCC(=O)O)CC1`, the pEC50 in assay [1] was 4.66; in assay [3], 4.68. The negative-log IC50 (pIC50) in assay [2] was 4.66.

For `CCCCC[C@H]1CCC[C@@H](CC(=O)O)C1`, the pEC50 in assay [1] is 3.42; in assay [3], 4.92. Besides, in assay [2], the pIC50 is 4.25.

As to `CCCCCCC1CC1C(=O)C(=O)O` (stereo not shown), the figures for the pEC50 in assay [4], in assay [1] and in assay [3] were 4.43, less than 3.30 and 3.49, respectively.

Take `CCCCCCC1C(CC(=O)O)C1(F)F` (stereo not shown): the negative logarithm of the EC50 (pEC50) in assay [1] was 3.42; in assay [3], 3.90. Further, in assay [2], the pIC50 is 3.93.

Consider `CCCCCC1C(CCC(=O)O)C1(Br)Br` (stereo not shown), for which the pEC50 was 4.35 in assay [1] and 4.80 in assay [3]. Moreover, the negative logarithm of the IC50 (pIC50) in assay [2] was 4.70.

Consider `CCCCCC1C(CCC(=O)O)C1(C)C` (stereo not shown), for which the pEC50 in assay [1] was less than 4.20; in assay [3], 4.57. For the same molecule, in assay [2], the pIC50 is less than 4.20.

With `[2H]C1([2H])C(CCCCCCC)C1CC(=O)[O-].[Na+]` (stereo not shown), the negative-log EC50 (pEC50) in assay [4] was 4.64; in assay [1] it was 3.52; in assay [3], 3.83.

Take `CCCCCC1C(CCC(=O)O)C1(F)F` (stereo not shown): the pEC50 was 4.10 in assay [4], less than 3.30 in assay [1] and 3.88 in assay [3].

Turning to `CC1(C)CC1CCCCCCCC(=O)O` (stereo not shown), the negative logarithm of the EC50 (pEC50) in assay [4] was 5.30; in assay [1] it was 4.11; in assay [3], 4.96.

Consider `CCCCCCCC1(CC(=O)O)CC1`, for which the negative-log EC50 (pEC50) was not above 3.30 in assay [1] and 3.91 in assay [3]. Moreover, the pIC50 in assay [2] is less than 3.30.

Turning to `CCCCCCC1OC1CC(=O)O` (stereo not shown), the results for the pEC50 in assay [4], in assay [1] and in assay [3] were 3.94, less than 3.30 and less than 3.30, respectively.

For the molecule `CC1(C)CC1CCCCC/C=C/C(=O)O` (stereo not shown), the pEC50 in assay [4] was 5.22; in assay [1], 4.21; in assay [3] it was 4.66.

On to `CCCCCCCC1CC1C(=O)O` (stereo not shown), for which the pEC50 in assay [4] is 4.89; in assay [1], less than 3.60; in assay [3], 4.31.

For `CC1(C)CC1CCCCCC1CC1C(=O)O` (stereo not shown), the pEC50 in assay [1] is 4.46; in assay [3], 4.84.

As to `CCCCCC1CC(CC(=O)O)C1` (stereo not shown), the negative-log EC50 (pEC50) in assay [4] is 4.46; in assay [1] it was less than 3.30; in assay [3], 4.06.

As to `CCCCCC1CC(=CC(=O)O)C1` (stereo not shown), the pEC50 in assay [4] is more than 4.80; in assay [1] it was 4.06; in assay [3], 4.15.

Turning to `CCCCCC=C1CC(C(=O)O)C1` (stereo not shown), the pEC50 in assay [1] was less than 3.30; in assay [3], 3.60. The negative logarithm of the IC50 (pIC50) in assay [2] was 3.88.

Consider `CCCCCCC1CC(C(=O)O)C1` (stereo not shown), for which the values for the pEC50 in assay [4], in assay [1] and in assay [3] were 4.14, 3.42 and 4.20, respectively.

`CCCCCC1CC/C1=C/C(=O)O` (stereo not shown): the pEC50 is 3.51 in assay [1] and 3.68 in assay [3]. Besides, the pIC50 in assay [2] is 3.74.

As to `CCCCCC1CCC1CC(=O)O` (stereo not shown), the values for the pEC50 in assay [1] and in assay [3] were less than 3.30 and 4.08, respectively. Besides, in assay [2], the pIC50 was 3.76.

As for `CCCCCCC1C(CCC(=O)O)C1(C)C` (stereo not shown), the negative-log EC50 (pEC50) is less than 4.51 in assay [1] and 5.00 in assay [3]. Besides, the negative-log IC50 (pIC50) in assay [2] was 5.05.

`CCCCCC1CC(CC(=O)O)C1(C)C` (stereo not shown): the negative logarithm of the EC50 (pEC50) is 4.05 in assay [1] and 4.82 in assay [3]. Also, in assay [2], the pIC50 is 4.31.

As to `CCCCCCCC1(CC(=O)O)CCC1`, the negative-log EC50 (pEC50) in assay [1] was less than 4.20; in assay [3] it was 4.68. For the same molecule, the pIC50 in assay [2] was less than 4.20.

For the molecule `CCCCCCC1C(CC(=O)O)C1(C)C` (stereo not shown) [drawing 299], the pEC50 in assay [1] is less than 3.90; in assay [3], 4.52. In addition, in assay [2], the negative logarithm of the IC50 (pIC50) is 4.25.

With `CCCCCCC1C(CC(=O)O)C1(C)C` (stereo not shown) [drawing 302], the negative-log EC50 (pEC50) in assay [1] and in assay [3] was less than 4.20 throughout.

As for `CCCCCCC1C(CC(=O)O)C1(C)C` (stereo not shown) [drawing 311], the figures for the negative logarithm of the EC50 (pEC50) in assay [1] and in assay [3] were less than 3.30 and 3.76, respectively. Moreover, the pIC50 in assay [2] is 3.33.
